{
  "source": "patent US20100099714A1",
  "about": "“AMPA and NMDA Receptor Antagonists for Neurodegenerative Diseases” (Eisai R&D Management Co., Ltd., priority 2007, published 2010)",
  "key": {"[1]": {"test_system": "Cortical cell cultures", "assay": "NMDA and kainate-induced toxicity, MTT assay of cell viability", "format": "cell-based, rat", "settings": "for protection of neuron from excitotoxicity induced by combination treatment with kainate and NMDA: 100 μM NMDA and 100 μM kainate for 24 h, monotherapy, FIG. 1A, B", "description": "Cortical cell cultures were prepared from fetal rats of the Wistar strain (gestational age of 17 to 19 days, Charles River Japan, Kanagawa, Japan). The cortex was dissected and kept in Neurobasal medium (Invitrogen Corp., Carlsbad, Calif., USA) containing 2% B27 supplement (Invitrogen), 25 μM 2-mercaptoethanol (Wako), 0.5 mM L-glutamine (Invitrogen) and ×1/100 volume of antibiotic-antimycotic (Invitrogen), then incubated at 37° C. for 30 min in Ca^2+/Mg^2+ free Hank's balanced salt solution (MSS; 10 mM HEPES, pH 7.3) containing 0.25% trypsin (Invitrogen) and 0.2 mg/ml deoxyribonuclease (DNase) (Sigma). The cortical tissues were dissociated to single cells by gentle trituration. The cell suspension was centrifuged at 310×g for 3 min and the resulting pellets were resuspended in the medium described above.\nThe cells were plated at an initial cell density of 5×10^5 cells/cm^2 in poly-L-lysine (Sigma)-coated 96-well plates. The cells were cultured in a CO2 incubator (5% (v/v), at 37° C. in the Neurobasal medium described above for 7 days, and cultured following 4 days in culture medium without antioxidant B27 supplement and 2-mercaptoethanol. The cultures were exposed to 100 μM of N-methyl-D-aspartate (NMDA)(Sigma) and 100 μM of kainate (Sigma) for 24 h at 37° C. The cells were treated with perampanel (0.03, 0.3, 3 or 30 μM) and memantine HCl (0.1, 1, 10 or 100 μM) for 24 h before and during the exposure to these agonists. In the combination experiment, perampanel at […] or memantine at 10 μM or its combination was used.\nViability of cells grown in 96-well plates was measured by 3-[4,5-dimethylthylthiazol-2-yl]-2,5-diphenyltetrazolium bromide (MTT) assay. The 10 μl of 8 mg/ml MTT (Sigma) solution in D-PBS(−) (Dulbecco's phosphate-buffered saline, Sigma) was added to each well. During 10 min incubation at 37° C., the active dehydrogenase in viable mitochondria reduces the tetrazolium ring of MTT, forming a blue-colored precipitate. The cells were lysed and the precipitate was dissolved in […] of MTT solubilizing buffer containing 20% sodium dodecyl sulfate (SDS: Wako) in 50% N,N-dimethyl formamide at pH 4.7, and quantified spectrophotometrically at 550-690 nm.\nWells without cells, containing only the medium and MTT solution, were measured to obtain the background value, which was subtracted from measured values at 550-690 nm, as follows: % of Recovery=(sample−NMDA/Kainate treated control)/(non-treated control−NMDA/Kainate treated control)×100.\nThe data were analyzed with one-way analysis of variance (ANOVA) followed by Dunnett's multiple comparison test using the software package SAS ver. 8.2 (SAS Institute Japan Ltd., Tokyo, Japan)."}, "[2]": {"assay": "Pharmacokinetic study of memantine, plasma concentration after single dose", "format": "in vivo, human", "settings": "corresponds to 20-25 ng/ml at 20 mg single dose", "description": "The efficacy of memantine in a variety of dementias has been shown in clinical trials. Memantine is considered to be a promising neuroprotective drug for the treatment of dementias, particularly Alzheimer's disease (Jain K K, Evaluation of memantine for neuroprotection in dementia. Expert Opin Investig Drugs 2000; 9(6): 1397-406.). Clinical dosage of mamentine is 20 mg/day. Maximal plasma concentration of memantine at 20 mg was at around 20-25 ng/ml after single dose treatment (Periclou A, et al., Pharmacokinetic study of memantine in healthy and renally impaired subjects. Clin Pharmacol Ther 2006; 79: 134-43.). This plasma concentration roughly correspond to 0.1 μM."}, "[3]": {"settings": "20 mg, single dose treatment; cited from earlier work"}, "[4]": {"settings": "40 mg/day compared to 20 mg/day; cited from earlier work"}, "[5]": {"test_system": "Alzheimer's disease", "settings": "Alzheimer's disease trials; cited from earlier work"}, "[6]": {"settings": "clinically relevant concentration, roughly 0.1 μM"}},
  "data": [
    {"smiles": "C[C@]12CC3C[C@](C)(C1)C[C@@](N)(C3)C2", "note": "[memantine, 1-amino-3,5-dimethyl-adamantane]", "values": [
      {"measurement": "protection of neuron from excitotoxicity induced by combination treatment with kainate and NMDA", "setting": "[1]", "value": "protected neuron from excitotoxicity"},
      {"measurement": "effect size at clinically relevant concentration", "setting": "[1]; [6]", "value": "small and far below maximal effect"},
      {"measurement": "neuroprotective effect at clinically relevant concentration", "setting": "[1]; [6]", "value": "significant neuroprotective effect"},
      {"measurement": "plasma concentration converted to molar", "setting": "[2]", "value": "~100", "unit": "nM"},
      {"measurement": "Maximal plasma concentration", "setting": "[3]", "value": "20 to 25", "unit": "ng/mL"},
      {"measurement": "risk of adverse event", "setting": "[4]", "value": "higher risk of adverse event"},
      {"measurement": "clinical effect", "setting": "[5]", "value": "modest"}
    ]},
    {"smiles": "N#Cc1ccccc1-c1cc(-c2ccccn2)cn(-c2ccccc2)c1=O", "note": "[perampanel, 2-(2-oxo-1-phenyl-5-pyridin-2-yl-1,2-dihydropyridin-3-yl)benzonitrile]", "values": [
      {"measurement": "shape of the neuroprotective effect over concentration", "setting": "[1]; 100 μM NMDA and 100 μM kainate", "value": "ceiling on the effect from lowest concentration showing neuroprotection"},
      {"measurement": "protection of neuron from excitotoxicity induced by combination treatment with kainate and NMDA", "setting": "[1]", "value": "protected neuron from excitotoxicity"}
    ]}
  ]
}
